{"source": "patent US11466044B2", "about": "(WAYNE STATE UNIVERSITY, priority 2017, dated 2022)", "key": {"MRSA": {"system": "MRSA", "assay": "MIC by broth microdilution, MRSA isolates", "assay_type": "cell-based", "conditions": "for MIC50: Staphylococcus aureus, MRSA, Table 1 (Example 1)"}, "E coli wild type": {"system": "E coli wild type", "assay": "MIC by broth microdilution, wild type E coli", "assay_type": "cell-based", "conditions": "for MIC / MIC50: Escherichia coli; for MIC50: Table 1 (Example 1)"}, "P aeruginosa": {"system": "P aeruginosa", "assay": "MIC by broth microdilution, P aeruginosa isolates", "assay_type": "cell-based, Pseudomonas aeruginosa", "conditions": "for MIC: read-out: MIC AG220 P. aerugin; for MIC50: Pseudomonas aeruginosa, Table 1 (Example 1)"}, "[1]": {"system": "E coli carrying specific resistance determinants", "assay": "MIC by broth microdilution, E coli carrying specific resistance determinants", "assay_type": "cell-based", "conditions": "for MIC: Escherichia coli"}, "[2]": {"system": "Klebsiella pneumonia AG215", "assay": "MIC by broth microdilution, Klebsiella pneumonia", "assay_type": "cell-based", "conditions": "strain AG215 Klebsiella pneumonia; for MIC: Klebsiella pneumoniae, read-out: MIC AG215 K. pneumon"}, "[3]": {"system": "Acinetobacter baumannii pittii AG225", "assay": "MIC by broth microdilution, Acinetobacter baumannii", "assay_type": "cell-based", "conditions": "strain AG225 Acinetobacter baumannii pittii"}, "[4]": {"system": "Enterobacter cloacae AG290", "assay": "MIC by broth microdilution, Enterobacter cloacae", "assay_type": "cell-based", "conditions": "strain AG290 Enterobacter cloacae; for MIC: read-out: MIC AG290 E. cloacae"}, "M. smegmatis SZ380": {"system": "M. smegmatis SZ380", "assay": "MIC by broth microdilution, M. smegmatis", "conditions": "for MIC: Mycolicibacterium smegmatis, SZ380, read-out: MIC SZ380 M. smegmatis, strain SZ380 Mycobacterium smegmatis"}, "[5]": {"conditions": "strain AG220 Pseudomonas aeruginosa ATCC27853"}}, "note": "Where a name gives a salt, the structure may show the parent alone. Read-outs that look alike come from different tables or passages of the source.", "data": [{"smiles": "CCCC(O)C1OC(OC2C(N)CC(N)C(O)C2OC2OC(CO)C(OC3OC(CN)C(O)C(O)C3N)C2O)C(N)C(O)C1O", "note": "(centres unmarked) [Compound 143]", "values": [{"measurement": "MIC50 MRSA AG38", "setting": "MRSA; strain AG38, Table 1 (Example 2)", "value": "32 to 64", "unit": "µg/mL"}, {"measurement": "MIC50 MRSA AG39", "setting": "MRSA; strain AG39, Table 1 (Example 2)", "value": ">64", "unit": "µg/mL"}, {"measurement": "MIC50 MRSA AG42", "setting": "MRSA; strain AG42, Table 1 (Example 2)", "value": ">64", "unit": "µg/mL"}, {"measurement": "MIC50 MRSA AG44", "setting": "MRSA; strain AG44, Table 1 (Example 2)", "value": 16, "unit": "µg/mL"}, {"measurement": "MIC50 E coli BM13 (AG06) wt", "setting": "E coli wild type; BM13 (AG06) wt, Table 2A (Example 2)", "value": 4, "unit": "µg/mL"}, {"measurement": "MIC50 E coli pH430 WT", "setting": "E coli wild type; pH430 WT, Table 2B (Example 2)", "value": 4, "unit": "μg/ml"}, {"measurement": "MIC50 E coli AG01", "setting": "E coli wild type; strain AG01, Table 1 (Example 2)", "value": 32, "unit": "µg/mL"}, {"measurement": "MIC50 E coli AG03", "setting": "E coli wild type; strain AG03, Table 1 (Example 2)", "value": 32, "unit": "µg/mL"}, {"measurement": "MIC50 E coli AG55", "setting": "E coli wild type; strain AG55, Table 1 (Example 2)", "value": 32, "unit": "µg/mL"}, {"measurement": "MIC AG212 E. coli", "setting": "E coli wild type; strain AG212 E. coli (ATCC25922)", "value": 8, "unit": "µg/mL"}, {"measurement": "MIC50 P aeruginosa AG31", "setting": "P aeruginosa; strain AG31, Table 1 (Example 2)", "value": ">64", "unit": "µg/mL"}, {"measurement": "MIC50 P aeruginosa AG32", "setting": "P aeruginosa; strain AG32, Table 1 (Example 2)", "value": ">64", "unit": "µg/mL"}, {"measurement": "MIC50 P aeruginosa AG33", "setting": "P aeruginosa; strain AG33, Table 1 (Example 2)", "value": ">64", "unit": "µg/mL"}, {"measurement": "MIC50 P aeruginosa AG86", "setting": "P aeruginosa; strain AG86, Table 1 (Example 2)", "value": ">64", "unit": "µg/mL"}, {"measurement": "MIC AG220 P. aerugin", "setting": "P aeruginosa; [5]", "value": ">128", "unit": "µg/mL"}, {"measurement": "MIC50 E coli AG036 ANT(4′,4″)", "setting": "[1]; AG036 ANT(4′,4″), Table 2B (Example 2)", "value": 64, "unit": "µg/mL"}, {"measurement": "MIC50 E coli AG037 APH(3′)-III", "setting": "[1]; AG037 APH(3′)-III, Table 2B (Example 2)", "value": ">128", "unit": "µg/mL"}, {"measurement": "MIC50 E coli AG103 armA", "setting": "[1]; AG103 armA, Table 2B (Example 2)", "value": "16 to 32", "unit": "µg/mL"}, {"measurement": "MIC50 E coli pH421 APH(3′)-I", "setting": "[1]; pH421 APH(3′)-I, Table 2B (Example 2)", "value": ">128", "unit": "μg/ml"}, {"measurement": "MIC50 E coli pH422 APH(3′)-II", "setting": "[1]; pH422 APH(3′)-II, Table 2B (Example 2)", "value": ">128", "unit": "μg/ml"}, {"measurement": "MIC50 E coli pH423 APH(3)-VI", "setting": "[1]; pH423 APH(3)-VI, Table 2B (Example 2)", "value": "32-64 μg/ml"}, {"measurement": "MIC50 E coli pH432 ANT(4′)", "setting": "[1]; pH432 ANT(4′), Table 2B (Example 2)", "value": 4, "unit": "μg/ml"}, {"measurement": "MIC AG215 K. pneumon", "setting": "[2]", "value": 4, "unit": "µg/mL"}, {"measurement": "MIC AG225 A. baumannii", "setting": "[3]", "value": "4 to 8", "unit": "µg/mL"}, {"measurement": "MIC AG290 E. cloacae", "setting": "[4]", "value": "4 to 8", "unit": "µg/mL"}, {"measurement": "MIC SZ380 M. smegmatis", "setting": "M. smegmatis SZ380; strain SZ380 Mycobacterium smegmatis", "value": 16, "unit": "µg/mL"}]}, {"smiles": "NCC1O[C@H](O[C@@H]2C(N)C[C@@H](N)C(O)[C@H]2O[C@@H]2O[C@H](CO)[C@H](F)C2O)[C@@H](N)C(O)[C@@H]1O", "note": "(some centres unmarked) [Compound 093]", "values": [{"measurement": "MIC", "setting": "E coli wild type; ATCC25922, read-out: MIC AG212 E. coli, strain AG212 E. coli (ATCC25922)", "value": 2, "unit": "µg/mL"}, {"measurement": "MIC", "setting": "P aeruginosa; [5]", "value": "> 64", "unit": "µg/mL"}, {"measurement": "MIC", "setting": "[2]", "value": "1 to 2", "unit": "µg/mL"}, {"measurement": "MIC", "setting": "[3]", "value": 16, "unit": "µg/mL"}, {"measurement": "MIC", "setting": "[4]", "value": 2, "unit": "µg/mL"}, {"measurement": "MIC", "setting": "M. smegmatis SZ380", "value": 8, "unit": "µg/mL"}]}, {"smiles": "CC(=O)NC[C@H]1O[C@@H](O[C@@H]2C(O)[C@H](N)CC(N)[C@H]2O[C@H]2OC(CO)[C@@H](O)[C@H](O)C2N)C(O)[C@H]1O[C@H]1O[C@@H](CN)[C@@H](O)C(O)C1N", "note": "(some centres unmarked) [Compound 165, 5″-Acetamido-5″-deoxy-paromomycin-acetate salt]", "values": [{"measurement": "MIC50", "setting": "MRSA; strain AG38, read-out: MIC50 MRSA AG38", "value": "16 to 32", "unit": "µg/mL"}, {"measurement": "MIC50", "setting": "MRSA; strain AG39, read-out: MIC50 MRSA AG39", "value": "> 128", "unit": "µg/mL"}, {"measurement": "MIC50", "setting": "MRSA; strain AG42, read-out: MIC50 MRSA AG42", "value": "> 128", "unit": "µg/mL"}, {"measurement": "MIC50", "setting": "MRSA; strain AG44, read-out: MIC50 MRSA AG44", "value": 16, "unit": "µg/mL"}, {"measurement": "MIC", "setting": "E coli wild type; AG006 wt, Table 2 (Example 1), read-out: MIC E coli AG006 wt", "value": "4 to 8", "unit": "µg/mL"}, {"measurement": "MIC", "setting": "E coli wild type; ATCC25922, strain AG212 E. coli (ATCC25922), read-out: MIC AG212 E. coli", "value": 16, "unit": "µg/mL"}, {"measurement": "MIC", "setting": "E coli wild type; clinical isolate AG160 WT, Table 2 (Example 4), read-out: MIC AG160 E. coli WT", "value": 8, "unit": "µg/mL"}, {"measurement": "MIC", "setting": "E coli wild type; engineered strain pH430 WT, Table 2 (Example 4), read-out: MIC pH430 E. coli WT", "value": "8 to 16", "unit": "µg/mL"}, {"measurement": "MIC50", "setting": "E coli wild type; strain AG01, read-out: MIC50 E coli AG01", "value": 64, "unit": "µg/mL"}, {"measurement": "MIC50", "setting": "E coli wild type; strain AG03, read-out: MIC50 E coli AG03", "value": "32 to 64", "unit": "µg/mL"}, {"measurement": "MIC50", "setting": "E coli wild type; strain AG55, read-out: MIC50 E coli AG55", "value": 32, "unit": "µg/mL"}, {"measurement": "MIC50", "setting": "P aeruginosa; strain AG31, read-out: MIC50 P aeruginosa AG31", "value": "> 128", "unit": "µg/mL"}, {"measurement": "MIC50", "setting": "P aeruginosa; strain AG32, read-out: MIC50 P aeruginosa AG32", "value": "> 128", "unit": "µg/mL"}, {"measurement": "MIC50", "setting": "P aeruginosa; strain AG33, read-out: MIC50 P aeruginosa AG33", "value": "> 128", "unit": "µg/mL"}, {"measurement": "MIC50", "setting": "P aeruginosa; strain AG86, read-out: MIC50 P aeruginosa AG86", "value": "> 128", "unit": "µg/mL"}, {"measurement": "MIC", "setting": "P aeruginosa; [5]", "value": "> 64", "unit": "µg/mL"}, {"measurement": "MIC", "setting": "[1]; read-out: MIC AG037 E. coli APH(3′)-III", "value": "> 64", "unit": "µg/mL"}, {"measurement": "MIC", "setting": "[1]; read-out: MIC pH421 E. coli APH(3′)-I", "value": "> 64", "unit": "µg/mL"}, {"measurement": "MIC", "setting": "[1]; read-out: MIC pH422 E. coli APH(3′)-II", "value": "> 64", "unit": "µg/mL"}, {"measurement": "MIC", "setting": "[1]; read-out: MIC pH423 E. coli APH(3′)-VI", "value": "> 64", "unit": "µg/mL"}, {"measurement": "MIC", "setting": "[2]", "value": 8, "unit": "µg/mL"}, {"measurement": "MIC", "setting": "[3]", "value": "8 to 16", "unit": "µg/mL"}, {"measurement": "MIC", "setting": "[4]", "value": 8, "unit": "µg/mL"}, {"measurement": "MIC", "setting": "M. smegmatis SZ380", "value": 32, "unit": "µg/mL"}]}]}
